Where two headings read alike, the source gives them in different places. Residues, ends and D or L forms follow the SMILES beside them.
What was measured:
[1] = system: glutamate metabotropic receptor; conditions: cited from earlier work
GS (rat liver) = GS (rat liver) (Rattus norvegicus, UniProt P09606); conditions: cited from earlier work
GS (sheep brain) = conditions: cited from earlier work
GS [2] = conditions: cited from earlier work
GS [3] = target: GS (Rattus norvegicus, UniProt P09606); type: in vivo, Wistar rats; parameters: Wistar rat brain homogenates were incubated with naftazone; from tissue; host or cells: Wistar rat brain homogenate or membranes; in A19 also liver and lungs; conditions: one hour after PTZ 50 mg/kg i.p.
GS (Rattus norvegicus, UniProt P09606), sequence (P09606 2-373 limits assumed): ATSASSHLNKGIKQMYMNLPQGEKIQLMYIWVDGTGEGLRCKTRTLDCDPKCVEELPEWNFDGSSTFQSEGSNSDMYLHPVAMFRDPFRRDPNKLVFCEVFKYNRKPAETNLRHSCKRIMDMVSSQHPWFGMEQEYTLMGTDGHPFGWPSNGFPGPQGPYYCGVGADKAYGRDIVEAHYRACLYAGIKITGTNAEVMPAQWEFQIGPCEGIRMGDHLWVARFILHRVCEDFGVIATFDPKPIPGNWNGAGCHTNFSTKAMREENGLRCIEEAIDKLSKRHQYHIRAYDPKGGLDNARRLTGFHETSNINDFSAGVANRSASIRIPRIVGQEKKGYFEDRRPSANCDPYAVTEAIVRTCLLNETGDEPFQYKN

[4] = Adrenal weight in corticosterone-administered rats; type: in vivo, Wistar rats
purified sheep brain GS = experiment: Purified sheep brain GS activity (Meister's method, gamma-glutamylhydroxamate formation); type: biochemical
Wistar rat brain GS = target: T1, Wistar rat brain GS (Rattus norvegicus, UniProt P09606); experiment: GS activity in Wistar rat brain homogenates; type: biochemical; conditions: in absence of 2β-ME
T1 construct: from tissue; host or cells: Wistar rat brain homogenate or membranes; in A19 also liver and lungs
T1 sequence (P09606 2-373 limits assumed): as above
Procedure: GS activity was assessed as mentioned above for purified sheep brain GS.

Wistar rats [5] = experiment: PTZ-induced seizures; type: in vivo; conditions: rat, in vivo
Wistar rats [6] = experiment: Forced swimming test in corticosterone-administered rats; type: in vivo
Wistar rats [7] = experiment: Open field task in corticosterone-administered rats; type: in vivo; conditions: day 15, corticosterone 35 mg/kg s.c.; versus PCB and Control

GS (rat liver), sequence (P09606 2-373 limits assumed): as above

N[C@]1(C(=O)O)CCc2cc(C(=O)O)ccc21 (racemic) [(RS)-1-Aminoindan-1,5-dicarboxylic acid]
activity at glutamate metabotropic receptors in words [1]: mGlu1 glutamate metabotropic receptor antagonist Pellicciari et al.,1995

NC(C(=O)O)c1cc(O)cc(O)c1 (racemic) [(RS)-3,5-Dihydroxyphenylglycine]
activity at glutamate metabotropic receptors in words [1]: Group I selective glutamate metabotropic receptor agonist (activates mGlu1 and mGlu5) Schoepp et al., 1994

NC(C(=O)O)c1cccc(O)c1 (racemic) [(RS)-3-Hydroxyphenylglycine]
activity at glutamate metabotropic receptors in words [1]: Glutamate metabotropic receptor agonist Thomsen and Suzdak, 1993

O=C(O)[C@@H]1C[C@@H](C(=O)O)N1 (relative stereo) [Trans-Azetidine-2,4-dicarboxylic acid]
activity at glutamate metabotropic receptors in words [1]: Group I selective glutamate metabotropic receptor agonist. (activates mGlu1 and mGlu5) Kozikowski et al., 1993

N[C@@]1(C(=O)O)CC[C@H](C(=O)O)C1 [1-Aminocyclopentane-cis-1,3-dicarboxylic acid]
activity at glutamate metabotropic receptors in words [1]: Group I/II glutamate metabotropic receptor agonist Olverman et al., 1983

CC(N)(CCP(=O)(O)O)C(=O)O (stereo not shown) [2-Amino-2-methyl-4-phosphono butanoic acid]
Ki (GS (rat liver)): 6.3 mM

C[C@@](N)(CCP(=O)(O)O)C(=O)O [2-Amino-2-methyl-4-phosphono-butyric acid]
activity at glutamate metabotropic receptors in words [1]: Selective mGlu3 glutamate metabotropic receptor antagonist Sekiyama et al., 1996

NC(CCP(=O)(O)O)C(=O)O (stereo not shown) [2-Amino-4-phosphono butanoic acid]
Ki (GS (rat liver)): 0.88 mM

COC(=O)C(CCP(=O)(O)O)C(=O)O (stereo not shown) [2-Methoxycarbonyl-4-phosphono butanoic acid]
Ki (GS (rat liver)): 8.7 mM

CC1(/C=C/c2ccccc2)C=CC=CN1 (stereo not shown) [2-Methyl-2-(phenylethenyl)pyridine]
activity at glutamate metabotropic receptors in words [1]: Selective mGlu5 glutamate metabotropic receptor antagonist Varney et al., 1999

CP(=O)(O)C(N)CCC(=O)O (stereo not shown) [4-Amino-4-(hydroxymethylphosphinyl) butanoic acid]
Ki (GS (rat liver)): 0.8 mM

CC(N)(CCC(=O)O)[PH](=O)CO (stereo not shown) [4-Amino-4-(hydroxymethylphosphinyl)-4-methyl butanoic acid]
Ki (GS (rat liver); read-out: Ki): 9.5 mM

NC(CCC(=O)O)P(=O)(O)O (stereo not shown) [4-Amino-4-phosphono butanoic acid]
Ki (GS (rat liver)): 1.3 mM

Cc1ccc(O)c(/N=N/c2ccccc2)n1 [6-Methyl-2-(phenylazo)-3-pyridinol]
activity at glutamate metabotropic receptors in words [1]: Selective mGlu5 glutamate metabotropic receptor antagonist Varney et al., 1999

N[C@](CC1c2ccccc2Oc2ccccc21)(C(=O)O)[C@H]1C[C@@H]1C(=O)O [(2S)-2-Amino-2-[(1S,2S)-2-carboxycycloprop-1-yl]-3-(xanth-9-yl) propanoic acid]
activity at glutamate metabotropic receptors in words [1]: Highly potent mGlu2 glutamate metabotropic receptor antagonist Ornstein et al., 1998

N[C@H](C(=O)O)[C@@H]1[C@@H](C(=O)O)C1(F)F [(2S,1′S,2′S)-2-(2′-Carboxy-3′,3′-difluorocyclopropyl)glycine]
activity at glutamate metabotropic receptors in words [1]: Glutamate metabotropic receptor agonist Shinozaki et al., 1996

N[C@@H](C[C@H](CCCC(c1ccccc1)c1ccccc1)C(=O)O)C(=O)O [(4S)-4-(4,4-Diphenylbutyl)-L-glutamic acid]
activity at glutamate metabotropic receptors in words [1]: Selective and competitive mGlu2 glutamate metabotropic receptor antagonist Wermuth et al., 1996

Cc1cc(C(=O)O)ccc1[C@H](N)C(=O)O [(S)-(+)-Amino-4-carboxy-2-methylbenzeneacetic acid]
activity at glutamate metabotropic receptors in words [1]: Selective mGlu1a glutamate metabotropic receptor antagonist Clarke et al., 1997

CCC(N)(CCP(C)(=O)O)C(=O)O (stereo not drawn) [Alpha-ethyl phosphinothricin]
Ki (GS (sheep brain)): 111 µM

C[C@@](N)(CCS(C)(=N)=O)C(=O)O (stereo partly drawn) [Alpha-methyl methionine sulfoximine]
GS inhibition in words (GS [2]): Slightly less inhibitory synthetic MS derivative Eisenberg et al., 2000

CC(N)(CCP(C)(=O)O)C(=O)O (stereo not drawn) [Alpha-methyl phosphinothricin]
Ki (GS (sheep brain)): 125 µM

NC1(C(=O)O)CCCC(P(=O)(O)O)C1 (stereo not shown) [Cyclohexane phosphinothricin, 1-Amino-3-phosphono-cyclohexane-carboxylic acid]
Ki (GS (sheep brain)): 125 µM

CC(CC(N)C(=O)O)P(C)(=O)O (stereo not shown) [Gamma methyl phosphinothricin]
Ki (GS (sheep brain)): 407 µM

CP(=O)(O)C(O)CC(N)C(=O)O (stereo not shown) [Gamma-hydroxy phosphinothricin]
Ki (GS (sheep brain)): 47 µM

N[C@H](C(=O)O)c1cc(=O)[nH]o1 [Ibotenic acid]
activity at glutamate metabotropic receptors in words [1]: Glutamate metabotropic receptor agonist Johnston, 1968

CS(=O)(=O)CC[C@H](N)C(=O)O [Methionine sulfone]
GS inhibition in words (GS [2]): Very potent ATP-dependent inhibitor of GS activity in a number of species. First discovered in nitrogen chloride treated zein. Eisenberg et al., 2000

COC(=O)CCC(N)P(=O)(O)O (stereo not shown) [Methyl 4-amino-4-phosphono butanate]
Ki (GS (rat liver)): 2.1 mM

CC(=O)N[C@@H](CC(=O)O)C(=O)N[C@@H](CCC(=O)O)C(=O)O [N-Acetyl-L-aspartyl-L-glutamic acid] (Ac-Asp-Glu-OH)
activity at glutamate metabotropic receptors in words [1]: Highly selective mGlu3 glutamate metabotropic receptor agonist Morris et al., 1965

C1CCc2nnnn2CC1 [PTZ, pentylenetetrazole]
GS activity in the cortex, hippocampus and thalamus (GS [3]): low

N[C@@H](CSS(=O)(=O)[O-])C(=O)O.[Na+] [S-Sulfo-L-cysteine sodium salt]
activity at glutamate metabotropic receptors in words [1]: mGlu1a and mGlu5a glutamate metabotropic receptor agonist Mewett et al., 1983

C[C@]12C[C@H](O)[C@H]3[C@@H](CCC4=CC(=O)CC[C@@]43C)[C@@H]1CC[C@@H]2C(=O)CO [corticosterone]
adrenal weight ([4]; repeated administration of corticosterone): decreased the adrenal weight

NNC(=O)c1ccncc1 [isoniazid, Isoniazid]
tested on GS activity: ligand or not (purified sheep brain GS): GS ligands

[Li] [lithium, Li2CO3]
maximum decrease of GS activity (Wistar rat brain GS; at 0.01 M): 40%

N[C@@H](CCS(=O)(=O)CP(=O)(O)O)C(=O)O [s-Phosphonomethyl homocysteine sulfone]
Ki (GS [2]): 1.4 mM

N[C@@H](CC[S+]([O-])CP(=O)(O)O)C(=O)O (stereo partly shown) [s-Phosphonomethyl homocysteine sulfoxide]
GS inhibition in words (GS [2]): Synthetic inhibitor Logusch et al., 1988 Eisenberg et at., 2000

[Sr+2] [strontium]
maximum decrease of GS activity (Wistar rat brain GS; at 10^−10 M): 75%

CN1c2ccccc2C(NCCCCCCC(=O)O)c2ccc(Cl)cc2S1(=O)=O (stereo not shown) [tianeptine, 7-[(3-chloro-6,11-dihydro-6-methyl-dibenzo[c,f][1,2]thiazepin-11-yl)amino] heptanoic acid S,S-dioxide]
dose of maximum effect on seizures (Wistar rats [5]): 10 mg/kg | dose relation of the effect on seizures (Wistar rats [5]): U-shaped | adrenal weight ([4]; 21 days, versus PCB): higher | immobility in the forced swimming test (Wistar rats [6]; GF 0.1 mg/kg, tianeptine 0.5 mg/kg): clear decrease in immobility | immobility in the forced swimming test (Wistar rats [6]; day 19, corticosterone 35 mg/kg s.c., versus PCB and Control): comparable or lower | resting time in the open field task (Wistar rats [7]): higher

(2S,3S,4S)-2-Methyl-2-(carboxycyclopropyl)glycine
activity at glutamate metabotropic receptors in words [1]: mGlu2 glutamate metabotropic receptor antagonist Jane et al., 1994

— patent publication US20090209474A1, “NOVEL USES FOR DRUGS TARGETING GLUTAMINE SYNTHETASE” (NEWTHERA, priority 2005, published 2009)
